1 compound from patent US20100120662A1, “Glucose uptake modulator and method for treating diabetes or diabetic complications” (POSTECH Foundation, priority 2005, published 2010) can be followed below.

A value given as a limit tells only on which side of the number the result lay.

The subject of series [1] is male ICR mice. Put plainly: Serum insulin level in mice after single intravenous injection. It counts as in vivo, mouse. The procedure:
(§1) Animals. Male ICR mice were purchased from hyochang science (ROK). C57BLKSJ-db/db mice were purchased from SLC (Japan). After intravenous injection of LPC, blood glucose was measured regularly with a portable glucose meter (Gluco-Dr, ROK) after tail snipping. For measurement of serum insulin, blood samples of mice were determined with the insulin-RIA Kit (LINCO, Missouri). Insulin deficient mice were induced in male ICR mice by two consecutive daily intraperitoneal injection of STZ (200 mg/kg) dissolved in sodium citrate (pH 5.5). On the third day after the last STZ injection, acute glucose lowering effect was analyzed after intravenous injection of vehicle, LPC or insulin as described above.
(§2) Eight-week-old male mice were intravenously injected with PBS, insulin, LPC, or LPE. Blood glucose was monitored after dosing (0 to 120 min). […] All animals had free access to water. Animal care was in accordance with institutional guidelines. All data are shown as means±SE (n=5-6).*P<0.05.

The subject of series [2] is 3T3-L1 adipocytes. The series can be described thus: Cytotoxicity of LPC concentration used on 3T3-L1 adipocytes. Format: cell-based. The note with it: 20 μM LPC.
The subject of another series is C2C12 muscle cells. The series can be described thus: Glucose uptake in C2C12 muscle cells (LPC). It counts as cell-based. As to conditions: data not shown.
For series [3], the system named is STZ-treated insulin deficient ICR male mice. Put plainly: Acute glucose lowering in streptozotocin (STZ)-treated insulin deficient ICR mice. It counts as in vivo, mouse. The note with it: 30 μmol/kg i.v. LPC. The procedure: as §1, §2
Series [4] has as its system 3T3-L1 adipocytes. Put plainly: [14C] 2-deoxy-D-glucose uptake in 3T3-L1 adipocytes. It counts as cell-based. As to conditions: for stimulation of glucose uptake: equimolar 20 μM, 10 min. The procedure: Cell culture: 3T3-L1 fibroblasts were grown to confluence in DMEM containing a high glucose concentration, 10% fetal bovine serum, 50 U of penicillin per ml, and 50 ug of streptomycin per ml and maintained in a 5% CO2 humidified atmosphere at 37° C. 3T3-L1 was induced to differentiate into adipocytes, as described previously (van den Berghe, N., et al., Mol Cell Biol 14, pp. 2372-2377, 1994).
Glucose uptake measurement. For measuring glucose uptake in 3T3-L1 adipocytes, cells were grown in serum-free DMEM for 16 h and then incubated in the absence or presence of insulin or lysophospholipids for the indicated times at 37° C. Uptake was measured by adding 1 μCi of [^14C] 2-deoxy-D-glucose and 3 mM 2-deoxy-D-glucose. After 10 min, the assay was terminated by two quick washes with ice-cold PBS. Cells were lysed in 0:5 ml of lysis buffer containing 0.5 N NaOH and 0.1% SDS. The cell lysates were used for liquid scintillation counting and nonspecific uptake was assayed in the presence of 10 μM cytochalasin B (van den Berghe, N., et al., Mol Cell Biol 14, pp. 2372-2377, 1994).
FIG. 2A to 2D show the effects of LPC on the glucose uptake in 3T3-L1 adipocytes. […] After these treatments, [^14C] 2-deoxy-D-glucose uptake was measured for 10 min as described in Material Methods. […] FIGS. 2C and 2D show relative [^14C] 2-deoxy-D-glucose uptake in 3T3-L1 adipocytes incubated in the absence (control) or presence of equimolar concentrations (20 μM) of myristoyl lysophosphatidylcholine (14:0 LPC), palmytoyl lysophosphatidylcholine (16:0 LPC), stearoyl lysophosphatidylcholine (18:0 LPC), palmytoyl lysophsophatidylethanolamine (16:0 LPE), palmytoyl lyso-phosphatidylinositol (16:0 LPI), palmytoyl lysophosphatidylglycerol (16:0 LPG) for 10 min. Values are mean±SE of three independent experiments performed in triplicate. *P<0.05 vs. basal.

In a further series the test system is C57BLKSJ-db/db mice. The series can be described thus: Acute glucose lowering in insulin-resistant obese db/db mice. Format: in vivo, mouse. As to conditions: injection of LPC. The procedure: as §1, §2
In series [5] the test system is male ICR mice. Put plainly: Acute blood glucose lowering in normal ICR mice after intravenous lysophospholipid. Format: in vivo, mouse. The procedure:
as §1, §2

For another series, the system named is GLUT4. Put plainly: GLUT4 translocation to the plasma membrane in 3T3-L1 adipocytes. Format: cell-based. The note with it: 20 μM, 10 min, plasma membrane fraction. How it is done:
Membrane fractionation of adipocytes. For obtaining total membranes (TM) from 3T3-L1 adipocytes, cells were collected into 10 ml of ice-cold HES buffer (250 mM sucrose, 1 mM EDTA, 1 mM phenylmethylsulfonyl fluoride [PMSF], 1 μM pepstatin, 1 μM aprotinin, 1 μM leupeptin, and 20 mM HEPES, pH 7.4) and subsequently homogenized with 30 strokes in a glass Dounce homogenizer at 4° C. After centrifugation at 1,000 g for 5 min at 4° C. to remove unbroken cells, the supernatant was then centrifugated at 212,000 g for 90 min at 4° C. to yield a pellet of total cellular membranes. To obtain the plasma membrane (PM) subcellular fraction from 3T3-L1 adipocytes, differential ultracentrifugation was used as described previously (Perrini, S., et al., Diabetes 53, pp. 41-52, 2004).
Immunoblotting. For preparing total cell lysates, 3T3-L1 adipocytes were washed with Ca^2+/Mg^2+-free PBS and then lysed in the lysis buffer (50 mM HEPES, pH 7.2, 150 mM NaCl, 50 mM NaF, 1 mM Na3VO4, 10% glycerol, 1% Triton X-100). The lysates were centrifuged at 15,000 rpm for 15 min at 4° C. […]
FIGS. 3A and 3B show LPC stimulates GLUT4 translocation in 3T3-L1 adipocytes. […] In each experiment, the relative increase or decrease in the integrated density value (IDV) of GLUT4 after stimulation with compounds is calculated. B) Quantitation of relative increases is depicted. […]

Another series deals with IRS1 and AKT. Put plainly: IRS1 and AKT phosphorylation in 3T3-L1 adipocytes (immunoblot). Format: cell-based. The note with it: LPC treatment of 3T3-L1 adipocytes. The procedure: Immunoblotting. For preparing total cell lysates, 3T3-L1 adipocytes were washed with Ca^2+/Mg^2+-free PBS and then lysed in the lysis buffer (50 mM HEPES, pH 7.2, 150 mM NaCl, 50 mM NaF, 1 mM Na3VO4, 10% glycerol, 1% Triton X-100). The lysates were centrifuged at 15,000 rpm for 15 min at 4° C. The proteins were denatured by boiling in laemmli sample buffer for 5 min at 95° C., separated by SDS-PAGE. SDS-gel was transferred to nitrocellulose membrane using Hoefer wet transfer system. Membranes were blocked in TTBS (20 mM Tris-HCl, pH 7.6, 150 mM NaCl, 0.05% Tween 20) containing 5% skimmed milk powder for 30 min and then incubated with antibodies for 3 hours. After washing membranes several times with TTBS, the blots were incubated with HRP (Horseradish peroxidase)-conjugated goat anti-rabbit for 1 hour. The blots were washed with TTBS and developed by ECL.
A general note: In western blotting, separated proteins are transferred to a membrane and probed.

Setting [6] is: 3T3-L1 adipocytes, 10 min incubation.

With `CCCCCCCCCCCCCCCC(=O)OC[C@@H](O)COP(=O)([O-])OCC[N+](C)(C)C` [LPC, palmytoyl lysophosphatidylcholine], the “change in blood insulin levels” value with male ICR mice [1] is recorded as “not due to changes in blood insulin levels”. Besides, the cytotoxicity result with 3T3-L1 adipocytes [2] was “not cytotoxic”. In addition, in the series with C2C12 muscle cells, the “rate of glucose uptake in C2C12 muscle cells” value is recorded as “increased the rate of glucose uptake in a dose dependent manner”. In addition, in [3], the “blood glucose concentrations in STZ-treated insulin deficient mice” value is “significantly reduced blood glucose concentrations”. In the series on 3T3-L1 adipocytes [4] (20 μM, 0 to 20 min), the “incubation time at which glucose uptake was maximally increased” value amounted to 10 min. In the series on 3T3-L1 adipocytes [4] (setting [6]), the “concentration of initial statistically significant effect on glucose uptake” value was determined as 1 µM and the “concentration of maximal effect on glucose uptake” value stood at 20 µM. The “time and dose dependence of glucose uptake” value in the series on 3T3-L1 adipocytes [4] (3T3-L1 adipocytes, various concentrations) was “time- and dose-dependent increase in glucose uptake”. Besides, the “stimulation of glucose uptake” value in the series with 3T3-L1 adipocytes [4] is listed as “specifically stimulated glucose uptake”. In the series on 3T3-L1 adipocytes [4] (listed as palmytoyl LPC), the “stimulation of glucose uptake” value was “stimulated glucose uptake”. The “blood glucose in insulin-resistant obese db/db mice” value in the series with C57BLKSJ-db/db mice was “dropped to near normal levels”. In the series with male ICR mice [5] (15 or 30 μmol/kg i.v.), the “time to statistically significant fall in blood glucose” value is reported as at most 30 min. The “blood glucose levels in ICR mice” value in the series on male ICR mice [5] (15 or 30 μmol/kg i.v., acute) is listed as “statistically significant fall in blood glucose levels”. In addition, in the series with male ICR mice [5] (doses equimolar to 30 μmol/kg i.v., ICR mice), the “blood glucose lowering, comparison of lysophospholipid species” value was “significant effect on the blood glucose lowering”. Besides, the “PM content of GLUT4 proteins” value in the series on GLUT4 was 180 % of basal. The “phosphorylation of IRS1 and AKT” value in the series with IRS1 and AKT was “had no effects on phosphorylation of IRS1 and AKT”.
